Experimental data published in patent US20230054379A1, “COMPOSITION AND METHOD OF TREATMENT TO SIMU[…] THE […] EFFICACY OF OPIOIDS AND REDUCE THEIR ADDICTIVE POWER” (Centro de Investigacion Y Desarrollo de Medicamentos (CIDEM), priority 2020, published 2023).
“And” between values parts separate entries of the source, which are not always exact repeats. Equal values may be shown once. Read-outs that look alike come from different tables or passages of the source. Marks after values point to notes of the source that are not given here.

Experiments:
[1] = Mechanical allodynia dose-response in CCI rats (von Frey filaments, % MPE); assay type: in vivo, rat; conditions: 7 days post-CCI
[2] = Intensity of mechanical hypernociception (electronic von Frey) in CCI or sham rats after chronic morphine or saline
[3] = Thermal hypernociception in CCI rats (Hargreaves test, % MPE); assay type: in vivo, rat; conditions: for % MPE, thermal hypernociception: first administration
[4] = Spontaneous withdrawal symptoms to morphine; assay type: in vivo, rat; conditions: JM-20 co-treatment; day 1 of withdrawal after chronic morphine
From the text: In this experiment we studied some somatic behaviors and symptoms in the rat associated with spontaneous withdrawal to morphine (jumping or escape attempts, tremors, mastication, piloerection, head shaking).

[5] = 22 rpm, mean ± SEM, n = 6
Description: Young rats (8-10 weeks) Sprague Dawley (SD) (males, 168-240 g) from the National Center for the Production of Laboratory Animals (CENPALAB, Havana, Cuba) were used, adapted for seven days to the conditions of the laboratory. The animals were kept under an alternating cycle of light and dark every 12 h, the temperature was controlled between 25-27° C. and an EMO 1001 diet established for the laboratory animals. After the adaptation period, the animals were distributed in the different groups according to their body weights. Water and food were kept available ad libitum. […] To induce tolerance/hyperalgesia to morphine, it was administered to the animals subcutaneously (10 mg/kg, 1 mUkg, s.c.) twice a day every 12 h for 10 days or saline solution (Cao, J L et al. 2005 Pharmacol Biochem and Behay. 80: 493-503), after oral administration of JM-20 or its vehicle, carboxymethylcellulose (0.5% CMC in distilled water, 10mUkg, p.o.) 1h before. Correspondingly, the following groups were constituted: CMC-SS (n=6), CMC-MOR (n=6), JM-20-SS (n=6), JM-20 (5mg/kg)-MOR (n=6) and JM-20 (20mg/kg)-MOR (n=6).

[6] = General behavioral evaluation of the nervous system (placing/stepping, righting, pinna, corneal reflexes; signs of CNS depression)
[7] = Mechanical hypernociception dose-response in CCI rats (electronic von Frey, % MPE); assay type: in vivo, rat; conditions: for ED50: Rattus norvegicus, 168 h, single dose, doses given in mg/kg
[8] = Histopathological study of sciatic nerve (Wallerian degeneration); conditions: CCI or sham rats; hematoxylin and eosin, light microscopy
[9] = Morphine-induced tolerance/hyperalgesia in healthy rats (von Frey filaments, electronic von Frey, hot plate, formalin test); assay type: in vivo, rat
From the text: (NIH Publication No. 85-23, revised 1996).

[10] = day 1, 45 min after first dose of morphine or saline, 105 min after JM-20 (20 mg/kg, p.o.) or CMC
[11] = day 5, 45 min after morphine or saline dose, 105 min after JM-20 (20 mg/kg, p.o.) or CMC
[12] = day 1, 45 min after first morphine or saline dose, 105 min after JM-20 (20 mg/kg, p.o.) or CMC
[13] = day 5, 45 min after morphine or saline, 105 min after JM-20 (20 mg/kg, p.o.) or CMC

CCOC(=O)C1=C(C)NC2=C(C=Nc3ccccc3N2)C1c1ccccc1[N+](=O)[O-] (centres unmarked) [JM-20, 3-ethoxycarbonyl-2-methyl-4-(2-nitrophenyl)-4,11-dihydro-1H-pyrido [2,3-b] [1,5] benzodiazepine]
% MPE, mechanical allodynia ([1]; JM-20 2.5 mg/kg p.o., 1 h after first administration): 24.97±8.5% | % MPE, mechanical allodynia ([1]; JM-20 5 mg/kg p.o., 1 h after first administration): 50.21±7.6% | % MPE, mechanical allodynia ([1]; JM-20 10 mg/kg p.o., 1 h after first administration): 48.68±7.6% | % MPE, mechanical allodynia ([1]; JM-20 20 mg/kg p.o., 1 h after first administration): 64.25±9.7% | ED50 ([1]; Rattus norvegicus, po, 168 h, JM-20 p.o., single dose, doses given in mg/kg): 8.44 ± 1.9 mg/kg | Intensity of mechanical hypernociception, difference (Δ) of the withdrawal threshold ([2]; CCI rats, SS s/c + JM-20 10 mg/kg p.o. for 5 days, day 11 post-surgery, 6 hours after last JM-20, 10 mg/kg): 10.68±5.89 grams and 10.68 ± 5.89*≠ grams | Intensity of mechanical hypernociception, difference (Δ) of the withdrawal threshold ([2]; CCI rats, SS s/c + JM-20 10 mg/kg p.o. for 5 days, day 23 post-surgery, 12 days after discontinuation of JM-20, 10 mg/kg): 5.93±2.65 grams and 5.93 ± 2.65*≠ grams | Intensity of mechanical hypernociception, difference (Δ) of the withdrawal threshold ([2]; CCI rats, saline (SS) s/c + JM-20 10 mg/kg p.o. group, day 7 post-surgery, prior to start of treatments): 41.55 ± 1.50 grams | Effect on withdrawal thresholds in the Hargreaves test ([3]; JM-20 2.5-20 mg/kg p.o., after first administration or repeated doses at 14 days post-CCI): did not increase withdrawal thresholds significantly | Spontaneous somatic withdrawal symptoms after withdrawal of morphine [4]: significantly reduced | Rota-rod motor performance (Latency sec) [5, 10]: 59 ± 0.5^b sec | Rota-rod motor performance (Latency sec) [5, 11]: 59 ± 0.5 s | Rota-rod motor performance (Latency sec) ([5]; day 11, without medications): 60 s | Corneal reflex, % of animals showing the reflex [6, 12]: 100% | Pinna reflex, % of animals showing the reflex [6, 12]: 100% | Placing/stepping reflex, % of animals showing the reflex [6, 12]: 100% | Righting reflex, % of animals showing the reflex [6, 12]: 100% | Corneal reflex, % of animals showing the reflex [6, 13]: 100% | Pinna reflex, % of animals showing the reflex [6, 13]: 100% | Placing/stepping reflex, % of animals showing the reflex [6, 13]: 100% | Righting reflex, % of animals showing the reflex [6, 13]: 100% | Corneal reflex, % of animals showing the reflex ([6]; day 11, without medications): 100% | Pinna reflex, % of animals showing the reflex ([6]; day 11, without medications): 100% | Placing/stepping reflex, % of animals showing the reflex ([6]; day 11, without medications): 100% | Righting reflex, % of animals showing the reflex ([6]; day 11, without medications): 100% | % MPE, intensity of mechanical hypernociception ([7]; JM-20 2.5 mg/kg p.o., 60 minutes after first dose, 7 days post-CCI): 32.26±4.2% | % MPE, intensity of mechanical hypernociception ([7]; JM-20 2.5 mg/kg p.o., 14 days post-CCI after repeated doses): 40.86±7.1% | % MPE, intensity of mechanical hypernociception ([7]; JM-20 5 mg/kg p.o., 60 minutes after first dose, 7 days post-CCI): 48.02±6.3% | % MPE, intensity of mechanical hypernociception ([7]; JM-20 5 mg/kg p.o., 14 days post-CCI after repeated doses): 38.13±9.4% | % MPE, intensity of mechanical hypernociception ([7]; JM-20 10 mg/kg p.o., 60 minutes after first dose, 7 days post-CCI): 39.20±7.9% | % MPE, intensity of mechanical hypernociception ([7]; JM-20 10 mg/kg p.o., 14 days post-CCI after repeated doses): 46.18±5.7% | % MPE, intensity of mechanical hypernociception ([7]; JM-20 20 mg/kg p.o., 60 minutes after first dose, 7 days post-CCI): 58.15±7.3% | % MPE, intensity of mechanical hypernociception ([7]; JM-20 20 mg/kg p.o., 14 days post-CCI after repeated doses): 55.28±8.3% | Neuroadaptations (tolerance/hyperalgesia) after repeated administration ([7]; JM-20 p.o. for 8 days, mechanical hypernociception at days 14, 15-16 post-CCI): neuroadaptations (tolerance/hyperalgesia) were not observed | ED50 ([7]; po, JM-20 p.o., 7 days post-CCI): 12.4 ± 6.4 mg/kg | Qualitative histopathological changes of the sciatic nerve (Wallerian degeneration, cellularity) [8]: still exerts its neuroprotective effect | Response to mechanical and thermal stimuli versus control group (CMC-SS) ([9]; JM-20-SS group, non-injured rats): did not show differences | Thermal hyperalgesia (PWL, hot plate test) ([9]; healthy rats, chronic morphine + JM-20 co-treatment, at 11 days): prevented thermal hyperalgesia | Percentage response to 4 g VFF and 15 g VFF and withdrawal threshold (Δ) ([9]; healthy rats, morphine 10 mg/kg s.c. twice a day for 10 days, JM-20 p.o. co-treatment 1 h before): significantly reduced | Nociceptive scores in the 5% formalin test ([9]; tolerant/hyperalgesic rats, day 11, test dose of morphine 5 mg/kg i.p., both phases): significantly improved nociceptive scores

NCC1(CC(=O)O)CCCCC1 [gabapentin]
Qualitative histopathological changes of the sciatic nerve (Wallerian degeneration, cellularity) [8]: decrease in these alterations

CN1CC[C@]23c4c5ccc(O)c4O[C@H]2[C@@H](O)C=C[C@H]3[C@H]1C5 [morphine, reference compound]
% MPE, mechanical allodynia ([1]; morphine 10 mg/kg s.c., first administration): 100% | Intensity of mechanical hypernociception, difference (Δ) of the withdrawal threshold ([2]; CCI rats, morphine group (vehicle p.o.), day 7 post-surgery, prior to start of treatments): 41.22±1.58 grams | Intensity of mechanical hypernociception, difference (Δ) of the withdrawal threshold ([2]; CCI rats, morphine group (vehicle p.o.), day 7 post-surgery, prior to start of treatments, listed as MOR): 41.22 ± 1.58 grams | Intensity of mechanical hypernociception, difference (Δ) of the withdrawal threshold ([2]; Sham CCI rats, morphine group, day 7 post-surgery, prior to start of treatments): 2.06 ± 2.96≠ grams | ED50 ([3]; Rattus norvegicus, sc, 168 h, morphine s.c., single dose, 7 days post-CCI, doses given in mg/kg): 3.17 ± 0.4 mg/kg | % MPE, thermal hypernociception ([3]; morphine 3 mg/kg s.c., 7 days post-CCI): 30.0±13% | % MPE, thermal hypernociception ([3]; morphine 10 mg/kg s.c., 7 days post-CCI): 95.69±3.4% | Rota-rod motor performance (Latency sec) [5, 10]: 16 ± 1.9^a sec | Rota-rod motor performance (Latency sec) [5, 11]: 57 ± 1.8 s | Rota-rod motor performance (Latency sec) ([5]; day 11, without medications): 60 s | Corneal reflex, % of animals showing the reflex [6, 12]: 100% | Pinna reflex, % of animals showing the reflex [6, 12]: 100% | Placing/stepping reflex, % of animals showing the reflex [6, 12]: 100% | Righting reflex, % of animals showing the reflex [6, 12]: 100% | Corneal reflex, % of animals showing the reflex [6, 13]: 100% | Pinna reflex, % of animals showing the reflex [6, 13]: 100% | Placing/stepping reflex, % of animals showing the reflex [6, 13]: 100% | Righting reflex, % of animals showing the reflex [6, 13]: 100% | Corneal reflex, % of animals showing the reflex ([6]; day 11, without medications): 100% | Pinna reflex, % of animals showing the reflex ([6]; day 11, without medications): 100% | Placing/stepping reflex, % of animals showing the reflex ([6]; day 11, without medications): 100% | Righting reflex, % of animals showing the reflex ([6]; day 11, without medications): 100% | ED50 ([7]; sc, morphine s.c., 7 days post-CCI): 5.63 ± 0.8 mg/kg | % MPE, intensity of mechanical hypernociception ([7]; morphine 3 mg/kg s.c., 14 days post-CCI after 8 repeated doses): 1.36±0.5% | % MPE, intensity of mechanical hypernociception ([7]; morphine 3 mg/kg s.c., first administration, 7 days post-CCI): 17.67±2.8% | % MPE, intensity of mechanical hypernociception ([7]; morphine 5 mg/kg s.c., 14 days post-CCI after 8 repeated doses): 6.10±1.0% | % MPE, intensity of mechanical hypernociception ([7]; morphine 5 mg/kg s.c., first administration, 7 days post-CCI): 48.05±2.9% | % MPE, intensity of mechanical hypernociception ([7]; morphine 10 mg/kg s.c., 14 days post-CCI after 8 repeated doses): 14.18±4.7% | % MPE, intensity of mechanical hypernociception ([7]; morphine 10 mg/kg s.c., first administration, 7 days post-CCI): 72.22±4.6% | Qualitative histopathological changes of the sciatic nerve (Wallerian degeneration, cellularity) [8]: minimal increase in cellularity
